# Data: patent US10864198B2, “Methods of preventing cardiovascular events in residual risk dyslipidemic populations” (Kowa Company, Ltd., priority 2016, dated 2020)
# Like-named read-outs stand apart in the source and are kept apart here.
# Experiments:
# [1] = target: T1, PPARδ (Homo sapiens, UniProt Q03181); conditions: PPAR transcriptional activity; Fruchart 2013 Table 1; cited from earlier work
# T1 sequence (Q03181 1-441): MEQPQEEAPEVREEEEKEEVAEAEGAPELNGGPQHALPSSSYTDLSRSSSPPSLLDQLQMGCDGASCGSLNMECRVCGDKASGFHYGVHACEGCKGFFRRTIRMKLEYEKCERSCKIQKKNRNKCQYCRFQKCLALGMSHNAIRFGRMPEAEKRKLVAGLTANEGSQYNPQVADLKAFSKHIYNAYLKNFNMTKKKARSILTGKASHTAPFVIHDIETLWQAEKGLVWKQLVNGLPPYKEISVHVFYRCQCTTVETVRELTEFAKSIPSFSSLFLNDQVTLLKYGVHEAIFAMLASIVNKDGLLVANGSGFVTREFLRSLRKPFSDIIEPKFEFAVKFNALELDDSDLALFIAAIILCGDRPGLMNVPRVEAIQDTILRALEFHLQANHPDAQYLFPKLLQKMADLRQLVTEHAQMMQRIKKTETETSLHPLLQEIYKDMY
# [2] = tested on: men with dyslipidemia; conditions: Helsinki Heart Study and VA-HIT Study; cited from earlier work
# [3] = tested on: patients on statins with residual cardiovascular risk; conditions: two clinical trials; cited from earlier work
# [4] = tested on: dyslipidemia patients on concurrent statin therapy; assay type: in vivo, human; conditions: for LDL-C levels increase vs. placebo: significant
# From the text: The results of the study are depicted in FIGS. 1A-1D.
# [5] = tested on: patients with type 2 diabetes mellitus with residual dyslipidemia on statin; experiment: Example 2: post-hoc analysis of type 2 diabetes patients of the Example 1 study; assay type: in vivo, human; conditions: for increase in HDL-C / BQ LDL-C increase: significant
# From the text: Overall, 161 type 2 diabetes mellitus patients were randomized and 154 patients completed treatment. […] Tables 1-4 also report the results of the analyses, and compare the results to the results obtained for the general residual dyslipidemia population studied in Example 1.
# [6] = tested on: patients with fasting high TG and non-HDL-C treated with pitavastatin; experiment: Example 3: double-blind parallel-group study, pemafibrate add-on to pitavastatin, 12 weeks; assay type: in vivo, human; conditions: for Fasting non-HDL-C reduction: with pitavastatin, placebo −5.9%; for Fasting TG reduction (percentage change from baseline): with pitavastatin 2 mg/day, P<0.001 vs placebo (−6.9%)
# From the text: The primary endpoint was the percentage change in TG from baseline and incidence of adverse drug reactions (ADRs) and adverse events (AEs).
# [7] = target: T2, PPARγ (Homo sapiens, UniProt P37231); conditions: PPAR transcriptional activity; Fruchart 2013 Table 1; cited from earlier work
# T2 sequence (P37231 1-505): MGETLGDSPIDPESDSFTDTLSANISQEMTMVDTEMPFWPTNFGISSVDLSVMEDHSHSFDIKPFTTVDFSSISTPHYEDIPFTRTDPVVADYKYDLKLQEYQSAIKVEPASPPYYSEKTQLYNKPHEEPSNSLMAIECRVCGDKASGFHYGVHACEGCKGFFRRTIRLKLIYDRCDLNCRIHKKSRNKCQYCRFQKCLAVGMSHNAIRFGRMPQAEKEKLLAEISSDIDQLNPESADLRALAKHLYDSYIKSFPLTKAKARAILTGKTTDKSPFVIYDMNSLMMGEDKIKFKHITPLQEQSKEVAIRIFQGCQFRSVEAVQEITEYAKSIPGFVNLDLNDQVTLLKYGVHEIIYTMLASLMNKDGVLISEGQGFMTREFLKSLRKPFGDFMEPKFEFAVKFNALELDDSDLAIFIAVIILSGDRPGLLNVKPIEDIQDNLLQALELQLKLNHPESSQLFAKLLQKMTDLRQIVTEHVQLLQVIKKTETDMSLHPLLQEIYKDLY
smiles,measurement,setting,value
"CC(C)OC(=O)C(C)(C)Oc1ccc(C(=O)c2ccc(Cl)cc2)cc1 [Fenofibrate, reference compound]",PPARδ EC50,[1],not activated
Cc1ccc(C)c(OCCCC(C)(C)C(=O)O)c1 [gemfibrozil],primary endpoint for reducing cardiovascular risk,[2],met their primary endpoint
O=C(O)c1cccnc1 [niacin],prevention of cardiovascular events,[3],unable to prevent cardiovascular events
"CC[C@@H](Oc1cccc(CN(CCCOc2ccc(OC)cc2)c2nc3ccccc3o2)c1)C(=O)O [pemafibrate, Pemafibrate]",LDL-C levels increase vs. placebo,"[4]; 0.1 mg BID, 12 weeks",22.46%
same,Non-HDL-C levels,"[4]; 0.2 mg BID, 12 weeks",significantly reduced
same,LDL-C levels increase vs. placebo,"[4]; 0.2 mg BID, 12 weeks",24.25%
same,Non-HDL-C levels,"[4]; 0.2 mg QD, 12 weeks",significantly reduced
same,LDL-C levels increase vs. placebo,"[4]; 0.4 mg QD, 12 weeks",18.74%
same,TG levels,[4]; all treatment groups after 12 weeks,significantly reduced
same,change in total Apo B,"[4]; any dose, 12 weeks",no significant change
same,"Adverse events, patients","[4]; both, human, in vivo, 12 weeks",46.4%
same,increase in HDL-C,[5]; 0.05 mg BID,11.39%
same,increase in HDL-C,[5]; 0.1 mg BID,11.94%
same,BQ LDL-C increase,[5]; 0.1 mg QD,6.7%
same,BQ LDL-C increase,[5]; 0.2 mg BID,1.8%
same,increase in HDL-C,[5]; 0.2 mg QD,9.48%
same,TG levels,[5]; across all doses,significantly reduced
same,Apo B48 levels,[5]; all doses,significantly reduced
same,Apo CIII levels,[5]; all doses,significantly reduced
same,remnant-C levels,[5]; all doses,significantly reduced
same,change in total Apo B,[5]; any dose,no significant change
same,fasting plasma glucose compared to placebo,"[6]; 0.4 mg/day, P=0.003",significant reductions
same,HOMA-IR compared to placebo,"[6]; 0.4 mg/day, P=0.019",significant reductions
same,very small LDL-C compared to placebo,"[6]; HPLC analysis, P<0.05",significant reduction
same,effect on total LDL-C,"[6]; add-on to pitavastatin, 12 weeks",neutral effect
same,Apo CIII compared to placebo,"[6]; all pemafibrate groups, P<0.01",reductions
same,HDL-C compared to placebo,"[6]; all pemafibrate groups, P<0.01",Significant increase
same,VLDL-C compared to placebo,"[6]; all pemafibrate groups, P<0.01",reductions
same,remnant lipoprotein cholesterol compared to placebo,"[6]; all pemafibrate groups, P<0.01",reductions
same,Fasting non-HDL-C reduction,"[6]; pemafibrate 0.1 mg, 12 weeks",−11.3%
same,Fasting TG reduction (percentage change from baseline),"[6]; pemafibrate 0.1 mg/day twice-daily, 12 weeks",−46.1%
same,Fasting non-HDL-C reduction,"[6]; pemafibrate 0.2 mg, 12 weeks",−14.1%
same,Fasting TG reduction (percentage change from baseline),"[6]; pemafibrate 0.2 mg/day twice-daily, 12 weeks",−53.4%
same,Fasting non-HDL-C reduction,"[6]; pemafibrate 0.4 mg, 12 weeks",−13.3%
same,Fasting TG reduction (percentage change from baseline),"[6]; pemafibrate 0.4 mg/day twice-daily, 12 weeks",−52.0%
same,EC50,[7],2300 nM
same,EC50,[1],1000 nM
